Reference: ChEMBL document CHEMBL4373715, “Discovery and Biological Evaluations of Halogenated 2,4-Diphenyl Indeno[1,2-b]pyridinol Derivatives as Potent Topoisomerase IIα-Targeted Chemotherapeutic Agents for Breast Cancer” (J Med Chem, 2019)

Tests used:
[1] = molecular target: T1, DNA topoisomerase 1 (Homo sapiens) (UniProt P11387); assay: Inhibition of recombinant human topoisomerase 1-mediated relaxation of supercoiled pBR322 DNA at 100 uM measured after 30 mins by ethidium bromide staining based agarose gel electrophoresis relative to control
T1 sequence (whole entry): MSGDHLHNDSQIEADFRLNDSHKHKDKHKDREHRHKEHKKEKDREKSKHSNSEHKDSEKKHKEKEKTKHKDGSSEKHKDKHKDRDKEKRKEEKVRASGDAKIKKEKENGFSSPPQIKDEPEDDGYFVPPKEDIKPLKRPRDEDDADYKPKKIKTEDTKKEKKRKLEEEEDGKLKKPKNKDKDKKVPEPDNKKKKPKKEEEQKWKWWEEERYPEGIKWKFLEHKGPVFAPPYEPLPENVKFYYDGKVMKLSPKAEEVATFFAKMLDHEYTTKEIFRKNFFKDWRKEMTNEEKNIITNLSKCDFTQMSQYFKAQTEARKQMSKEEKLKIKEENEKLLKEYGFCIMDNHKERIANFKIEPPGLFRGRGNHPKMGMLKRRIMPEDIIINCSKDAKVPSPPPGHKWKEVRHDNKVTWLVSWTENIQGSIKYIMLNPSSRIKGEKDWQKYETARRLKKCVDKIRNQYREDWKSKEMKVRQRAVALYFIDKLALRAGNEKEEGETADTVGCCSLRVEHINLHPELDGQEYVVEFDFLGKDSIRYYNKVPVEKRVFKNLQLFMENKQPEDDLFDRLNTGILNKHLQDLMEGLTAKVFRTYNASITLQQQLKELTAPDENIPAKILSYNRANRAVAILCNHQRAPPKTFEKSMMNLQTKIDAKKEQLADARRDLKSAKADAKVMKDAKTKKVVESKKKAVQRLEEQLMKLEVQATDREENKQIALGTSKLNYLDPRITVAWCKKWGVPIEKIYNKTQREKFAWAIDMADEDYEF

HeLa = assay: Antiproliferative activity against human HeLa cells measured after 72 hrs by EZ-Cytox assay; assay type: functional, cell-based
T47D = assay: Antiproliferative activity against human T47D cells measured after 72 hrs by EZ-Cytox assay; assay type: functional, cell-based
DU-145 = assay: Antiproliferative activity against human DU145 cells measured after 72 hrs by EZ-Cytox assay; assay type: functional, cell-based; conditions: DU-145, 72 h
HCT-15 = assay: Antiproliferative activity against human HCT15 cells measured after 72 hrs by EZ-Cytox assay; assay type: functional, cell-based; conditions: HCT-15, 72 h
[2] = molecular target: DNA topoisomerase 2-alpha (Homo sapiens) (UniProt P11388); assay: Inhibition of recombinant human topoisomerase 2alpha-mediated relaxation of supercoiled pBR322 DNA at 20 uM measured after 30 mins by ethidium bromide staining based agarose gel electrophoresis relative to control
DNA topoisomerase 2-alpha (Homo sapiens), sequence (P11388 whole entry): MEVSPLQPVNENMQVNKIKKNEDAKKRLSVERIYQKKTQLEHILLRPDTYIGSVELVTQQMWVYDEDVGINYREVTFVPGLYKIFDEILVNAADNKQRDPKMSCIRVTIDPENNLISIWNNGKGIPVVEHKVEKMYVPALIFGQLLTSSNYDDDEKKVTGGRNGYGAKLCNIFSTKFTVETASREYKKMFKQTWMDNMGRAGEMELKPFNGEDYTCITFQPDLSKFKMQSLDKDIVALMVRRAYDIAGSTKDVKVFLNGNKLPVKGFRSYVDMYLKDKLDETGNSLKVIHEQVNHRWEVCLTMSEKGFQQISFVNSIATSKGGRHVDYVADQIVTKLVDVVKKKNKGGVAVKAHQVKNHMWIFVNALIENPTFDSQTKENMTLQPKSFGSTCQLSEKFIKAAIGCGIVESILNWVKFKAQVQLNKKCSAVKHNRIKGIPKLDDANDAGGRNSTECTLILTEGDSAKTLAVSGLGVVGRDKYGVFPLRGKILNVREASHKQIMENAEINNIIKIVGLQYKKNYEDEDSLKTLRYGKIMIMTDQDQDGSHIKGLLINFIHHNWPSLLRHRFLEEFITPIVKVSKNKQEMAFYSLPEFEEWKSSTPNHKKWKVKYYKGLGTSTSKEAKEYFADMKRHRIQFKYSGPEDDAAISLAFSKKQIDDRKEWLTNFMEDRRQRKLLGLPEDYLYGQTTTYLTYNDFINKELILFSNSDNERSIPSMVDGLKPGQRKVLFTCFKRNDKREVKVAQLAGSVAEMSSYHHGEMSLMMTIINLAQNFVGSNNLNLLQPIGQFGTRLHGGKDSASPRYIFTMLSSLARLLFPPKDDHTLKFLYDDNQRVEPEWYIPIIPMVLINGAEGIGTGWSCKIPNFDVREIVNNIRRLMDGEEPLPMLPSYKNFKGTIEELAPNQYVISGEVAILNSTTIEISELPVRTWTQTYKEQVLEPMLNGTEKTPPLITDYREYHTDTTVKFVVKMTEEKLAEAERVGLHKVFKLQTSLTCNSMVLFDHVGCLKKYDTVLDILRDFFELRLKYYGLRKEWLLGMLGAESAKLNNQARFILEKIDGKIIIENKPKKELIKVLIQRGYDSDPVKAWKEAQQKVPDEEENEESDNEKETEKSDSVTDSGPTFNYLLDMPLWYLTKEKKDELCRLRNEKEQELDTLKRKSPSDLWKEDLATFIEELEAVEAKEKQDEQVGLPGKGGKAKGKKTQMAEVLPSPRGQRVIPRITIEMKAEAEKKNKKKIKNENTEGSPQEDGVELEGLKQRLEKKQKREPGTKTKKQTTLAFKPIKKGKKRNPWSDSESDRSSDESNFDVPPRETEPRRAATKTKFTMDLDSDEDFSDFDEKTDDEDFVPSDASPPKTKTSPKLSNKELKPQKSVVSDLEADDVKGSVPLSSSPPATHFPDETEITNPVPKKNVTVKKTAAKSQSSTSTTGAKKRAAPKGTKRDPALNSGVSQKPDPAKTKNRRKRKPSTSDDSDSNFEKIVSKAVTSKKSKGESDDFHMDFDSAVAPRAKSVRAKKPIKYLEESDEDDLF

[3] = molecular target: DNA topoisomerase 2-alpha (Homo sapiens) (UniProt P11388); assay: Inhibition of recombinant human topoisomerase 2alpha-mediated relaxation of supercoiled pBR322 DNA at 100 uM measured after 30 mins by ethidium bromide staining based agarose gel electrophoresis relative to control

Row | inhibition [1] [%] | inhibition [2] [%] | inhibition [3] [%] | SMILES | IC50 (HeLa) [µM] | IC50 (T47D) [µM] | IC50 (DU-145) [µM] | IC50 (HCT-15) [µM]
1 | 8.8 | 8.3 | 42.8 | Oc1ccc(-c2cc(-c3ccccc3)c3c(n2)-c2ccc(O)cc2C3)cc1 | 2.67 | 0.73 | 0.71 | 1.27
2 | 11.7 | 1.4 | 47.1 | Oc1ccc(-c2cc(-c3ccccc3F)nc3c2Cc2cccc(O)c2-3)cc1 | > 50 | 47.2 | 10.3 | > 50
3 | 0 | 24.9 | 100 | Oc1cccc(-c2cc(-c3ccccc3Cl)nc3c2Cc2c(O)cccc2-3)c1 | 0.59 | 1.53 | 0.92 | 0.8
4 | 1.3 | 7.5 | 97 | Oc1ccc(-c2cc(-c3ccc(Cl)cc3)c3c(n2)-c2cccc(O)c2C3)cc1 | 18.3 | 12.8 | 1.81 | 9.1
5 | 0 | 11.9 | 99.9 | Oc1ccc2c(c1)Cc1c(-c3ccccc3O)cc(-c3ccc(C(F)(F)F)cc3)nc1-2 | 7.87 | 0.83 | 2.09 | 4.33
6 | 0 | 0 | 100 | Oc1cccc(-c2cc(-c3ccc(C(F)(F)F)cc3)nc3c2Cc2cccc(O)c2-3)c1 | 6.66 | 2.14 | 2.22 | 11.3
7 | 5.6 | 32.3 | 100 | Oc1cccc(-c2cc(-c3ccccc3Cl)nc3c2Cc2cc(O)ccc2-3)c1 | 0.91 | 0.78 | 0.81 | 0.00133
8 | 11.7 | 8.2 | 70.5 | Oc1ccc2c(c1)Cc1c(-c3ccccc3O)cc(-c3ccccc3Cl)nc1-2 | 0.84 | 2.86 | 1.51 | 2.34
9 | 0.1 | 0.1 | 95.8 | Oc1ccccc1-c1cc(-c2ccccc2)nc2c1Cc1cccc(O)c1-2 | 2.95 | 2.44 | 0.17 | 1.36
10 | 0.4 | 3.4 | 86.1 | Oc1ccc2c(c1)-c1nc(-c3ccccc3C(F)(F)F)cc(-c3ccccc3O)c1C2 | 2.96 | 1.41 | 2.86 | 4.04
11 | 2.1 | 6.2 | 74.3 | Oc1cccc(-c2cc(-c3ccc(Cl)cc3)c3c(n2)-c2ccc(O)cc2C3)c1 | > 50 | > 50 | > 50 | > 50
12 | 1.6 | 3.7 | 90.2 | Oc1ccc2c(c1)Cc1c(-c3ccccc3O)cc(-c3ccccc3C(F)(F)F)nc1-2 | 2.92 | 1.14 | 2.02 | 1.61
13 | 5.6 | 40.5 | 67.3 | Oc1cccc(-c2cc(-c3cccc(C(F)(F)F)c3)nc3c2Cc2c(O)cccc2-3)c1 | 4.17 | 1.91 | 1.62 | 2.69

More lines, now with the values behind:

Row | SMILES | inhibition [1] [%] | inhibition [2] [%] | inhibition [3] [%] | IC50 (HeLa) [µM] | IC50 (T47D) [µM] | IC50 (DU-145) [µM] | IC50 (HCT-15) [µM]
14 | Oc1cccc(-c2cc(-c3cccc(Cl)c3)c3c(n2)-c2cccc(O)c2C3)c1 | 7.4 | 2.3 | 64.6 | 35.5 | 33.1 | 21.3 | 4.79
15 | Oc1ccc(-c2cc(-c3ccccc3C(F)(F)F)nc3c2Cc2c(O)cccc2-3)cc1 | 7.1 | 0.6 | 30.1 | > 50 | 2.66 | 5.34 | 3.82
16 | Oc1ccccc1-c1cc(-c2ccccc2)nc2c1Cc1c(O)cccc1-2 | 0 | 0 | 78.5 | 6.32 | 2.33 | 0.8 | 3.47
17 | Oc1cccc(-c2cc(-c3cccc(F)c3)nc3c2Cc2cc(O)ccc2-3)c1 | 17.5 | 0 | 66.2 | 3.85 | 0.79 | 1.41 | 2.71
18 | Oc1ccc(-c2cc(-c3cccc(Cl)c3)c3c(n2)-c2cc(O)ccc2C3)cc1 | 8.8 | 1.2 | 73.6 | 8.06 | 2.76 | 2.1 | 7.59
19 | Oc1ccc(-c2cc(-c3cccc(Cl)c3)c3c(n2)-c2ccc(O)cc2C3)cc1 | 8.8 | 3.3 | 73.9 | 5.94 | 1.86 | 2.25 | 5.69
20 | Oc1cccc(-c2cc(-c3ccc(C(F)(F)F)cc3)nc3c2Cc2cc(O)ccc2-3)c1 | 2.8 | 14.9 | 100 | 11.4 | 8.9 | 1.59 | 6.82
21 | Oc1ccccc1-c1cc(-c2ccc(F)cc2)nc2c1Cc1c(O)cccc1-2 | 0 | 0 | 67 | 31.9 | 0.61 | 2.36 | 4.31
22 | Oc1ccccc1-c1cc(-c2ccccc2Cl)nc2c1Cc1cccc(O)c1-2 | 13.4 | 3.7 | 80.9 | 1.12 | 0.87 | 0.29 | 3.17
23 | Oc1cccc(-c2cc(-c3ccc(C(F)(F)F)cc3)nc3c2Cc2ccc(O)cc2-3)c1 | 0 | 5.1 | 100 | 3.63 | 1.8 | 3.18 | 2.95
24 | Oc1ccc2c(c1)Cc1c(-c3cccc(Cl)c3)cc(-c3ccccc3O)nc1-2 | 1.6 | 3.4 | 74.3 | > 50 | > 50 | > 50 | > 50
25 | Oc1ccc2c(c1)Cc1c(-c3ccc(Cl)cc3)cc(-c3ccccc3O)nc1-2 | 21.4 | 0 | 70.8 | > 50 | > 50 | > 50 | > 50
26 | Oc1ccccc1-c1cc(-c2cccc(Cl)c2)nc2c1Cc1c(O)cccc1-2 | 0 | 6.9 | 83.5 | > 50 | 0.64 | 0.56 | 7.47
27 | Oc1cccc(-c2cc(-c3ccc(F)cc3)nc3c2Cc2ccc(O)cc2-3)c1 | 11.7 | 5.4 | 48.3 | 3.82 | 0.68 | 1.06 | 1.46
28 | Oc1ccc(-c2cc(-c3cccc(Cl)c3)nc3c2Cc2c(O)cccc2-3)cc1 | 1.2 | 36.9 | 72.8 | 3.56 | 0.62 | 0.22 | 1.84
29 | Oc1ccccc1-c1cc(-c2cccc(C(F)(F)F)c2)nc2c1Cc1cccc(O)c1-2 | 2.7 | 4.3 | 95.8 | 5.73 | 0.98 | 3.38 | 2.84
30 | Oc1cccc(-c2cc(-c3ccc(Cl)cc3)c3c(n2)-c2cc(O)ccc2C3)c1 | 7.3 | 12.4 | 80.4 | > 50 | > 50 | 32.2 | > 50
31 | Oc1ccc(-c2cc(-c3cccc(Cl)c3)nc3c2Cc2cc(O)ccc2-3)cc1 | 0 | 31.9 | 100 | 1.17 | 1.2 | 1.2 | 0.75
32 | Oc1cccc(-c2cc(-c3ccccc3)nc3c2Cc2cc(O)ccc2-3)c1 | 20 | 0 | 96.8 | 5.64 | 2.66 | 0.6 | 1.48
33 | Oc1ccc2c(c1)-c1nc(-c3ccccc3)cc(-c3ccccc3)c1C2 | 2.6 | 5.5 | 79.9 | 4.38 | 0.19 | 3.49 | 3.13
